In PMC9917560, “Design, Synthesis and Antimicrobial Evaluation of New N-(1-Hydroxy-1,3-dihydrobenzo[c][1,2]oxaborol-6-yl)(hetero)aryl-2-carboxamides as Potential Inhibitors of Mycobacterial Leucyl-tRNA Synthetase” (International Journal of Molecular Sciences, 2023):
Values after ≈ are worked out from the molar mass of the structure shown. Like-named read-outs stand apart in the source and are kept apart here.

Assays:
[1] = system: Pseudomonas aeruginosa CCM 3955 (ATCC 27853); test: Antibacterial microdilution broth (EUCAST); type: cell-based; conditions: read-out: MIC Pseudomonas aeruginosa
[2] = system: Candida krusei CCM 8271 (ATCC 6258); test: Antifungal microdilution broth (EUCAST); type: cell-based; conditions: Pichia kudriavzevii, read-out: MIC Candida krusei
[3] = system: methicillin-resistant Staphylococcus aureus subsp. aureus (MRSA) CCM 4750 (ATCC 43300); test: microbe, parasite or virus in culture; type: cell-based; conditions: read-out: MIC Methicillin-resistant Staphylococcus aureus subsp. aureus
[4] = system: Staphylococcus epidermidis CCM 4418 (ATCC 12228); test: Antibacterial microdilution broth (EUCAST); type: cell-based; conditions: read-out: MIC Staphylococcus epidermidis
[5] = system: Candida albicans CCM 8320 (ATCC 24433); test: Antifungal microdilution broth (EUCAST); type: cell-based; conditions: Candida albicans, read-out: MIC Candida albicans
[6] = system: Staphylococcus aureus subsp. aureus CCM 4223 (ATCC 29213); test: Antibacterial microdilution broth (EUCAST); type: cell-based; conditions: read-out: MIC Staphylococcus aureus subsp. aureus
[7] = system: Enterococcus faecalis CCM 4224 (ATCC 29212); test: Antibacterial microdilution broth (EUCAST); type: cell-based; conditions: read-out: MIC Enterococcus faecalis
HepG2 cell line = test: Cytotoxicity screening, CellTiter 96 assay; conditions: Homo sapiens, HepG2, 24 h, read-out: IC50 HepG2
[8] = system: Escherichia coli CCM 3954 (ATCC 25922); test: Antibacterial microdilution broth (EUCAST); type: cell-based; conditions: Escherichia coli, read-out: MIC Escherichia coli
[9] = system: Trichophyton interdigitale CCM 8377 (ATCC 9533); test: Antifungal microdilution broth (EUCAST); type: cell-based; conditions: Trichophyton interdigitale, read-out: MIC Trichophyton interdigitale
[10] = system: Mycolicibacterium smegmatis DSM 43,465 (ATCC 607); test: Antimycobacterial microdilution (resazurin) vs M. smegmatis; type: cell-based; conditions: Middlebrook 7H9, resazurin, read-out: MIC M. smeg.
[11] = system: Lichtheimia corymbifera CCM 8077; test: Antifungal microdilution broth (EUCAST); type: cell-based; conditions: Lichtheimia corymbifera, read-out: MIC Lichtheimia corymbifera
[12] = system: Candida tropicalis CCM 8264 (ATCC 750); test: Antifungal microdilution broth (EUCAST); type: cell-based; conditions: read-out: MIC Candida tropicalis
[13] = system: Mycobacterium kansasii DSM 44,162 (ATCC 12478); test: Antimycobacterial microdilution (resazurin) vs M. kansasii; type: cell-based; conditions: read-out: MIC M. kansasii
[14] = system: Candida parapsilosis CCM 8260 (ATCC 22019); test: Antifungal microdilution broth (EUCAST); type: cell-based; conditions: Lodderomyces parapsilosis, read-out: MIC Candida parapsilosis
[15] = system: Klebsiella pneumoniae CCM 4415 (ATCC 10031); test: Antibacterial microdilution broth (EUCAST); type: cell-based; conditions: Klebsiella pneumoniae, read-out: MIC Klebsiella pneumoniae
[16] = system: Aspergillus flavus CCM 8363; test: Antifungal microdilution broth (EUCAST); type: cell-based; conditions: Aspergillus flavus, read-out: MIC Aspergillus flavus
[17] = system: Acinetobacter baumannii DSM 30007 (ATCC 19606); test: Antibacterial microdilution broth (EUCAST); type: cell-based; conditions: read-out: MIC Acinetobacter baumannii
[18] = system: Mycobacterium tuberculosis H37Rv CNCTC My 331/88 (ATCC 27294); test: Microplate Alamar Blue assay vs Mtb H37Rv; type: cell-based; conditions: Mycobacterium tuberculosis, pH 6.6, MABA, Middlebrook 7H9 pH 6.6, recalculated from µg/mL; read-out: MIC Mtb H37Rv
[19] = system: Mycobacterium avium DSM 44,156 (ATCC 25291); test: Antimycobacterial microdilution (resazurin) vs M. avium; type: cell-based; conditions: Middlebrook 7H9, resazurin, read-out: MIC M. avium
[20] = system: Mycobacterium tuberculosis H37Ra ITM-M006710 (ATCC 9431); test: Antimycobacterial microdilution (resazurin) vs Mtb H37Ra; type: cell-based; conditions: Middlebrook 7H9, resazurin, recalculated from µg/mL, read-out: MIC Mtb H37Ra
[21] = system: Mycolicibacterium aurum DSM 43,999 (ATCC 23366); test: Antimycobacterial microdilution (resazurin) vs M. aurum; type: cell-based; conditions: Middlebrook 7H9, resazurin, read-out: MIC M. aurum
[22] = system: Aspergillus fumigatus ATCC 204305; test: Antifungal microdilution broth (EUCAST); type: cell-based; conditions: Aspergillus fumigatus, read-out: MIC Aspergillus fumigatus

## O=C(Nc1ccc2c(c1)B(O)OC2)c1cnc(O)cn1 [Compound 9, 5-hydroxy-N-(1-hydroxy-1,3-dihydrobenzo[c][1,2]oxaborol-6-yl)pyrazine-2-carboxamide]
[1]; 24h incubation
  MIC: > 500 µM
[1]; 48h incubation
  MIC: > 500 µM
[2]; 24h incubation
  MIC: > 500 µM
[2]; 48h incubation
  MIC: > 500 µM
[3]; 24 h
  MIC: > 500 µM
[3]; 48 h
  MIC: > 500 µM
[4]; 24h incubation
  MIC: > 500 µM
[4]; 48h incubation
  MIC: > 500 µM
[5]; 24h incubation
  MIC: > 500 µM
[5]; 48h incubation
  MIC: > 500 µM
[6]; 24h incubation
  MIC: > 500 µM
[6]; 48h incubation
  MIC: > 500 µM
[7]; 24h incubation
  MIC: > 500 µM
[7]; 48h incubation
  MIC: > 500 µM
HepG2 cell line
  IC50: > 1000 µM
[8]; 24h incubation
  MIC: > 500 µM
[8]; 48h incubation
  MIC: > 500 µM
[9]; 72h incubation
  MIC: > 500 µM
[9]; 120h incubation
  MIC: > 500 µM
[10]
  MIC: 57.6 µM (≈ 15.6 µg/mL)
[11]; CCM8077, 24h incubation
  MIC: > 500 µM
[11]; CCM8077, 48h incubation
  MIC: > 500 µM
other
  melting point: 338.3 to 340.1 °C
[12]; 24h incubation
  MIC: > 500 µM
[12]; 48h incubation
  MIC: > 500 µM
[13]
  MIC: 115 µM (≈ 31.3 µg/mL)
[14]; 24h incubation
  MIC: > 500 µM
[14]; 48h incubation
  MIC: > 500 µM
[15]; 24h incubation
  MIC: > 500 µM
[15]; 48h incubation
  MIC: > 500 µM
[16]; CCM8363, 24h incubation
  MIC: > 500 µM
[16]; CCM8363, 48h incubation
  MIC: > 500 µM
[17]; 24h incubation
  MIC: > 500 µM
[17]; 48h incubation
  MIC: > 500 µM
[18]
  MIC: 184 µM (≈ 50 µg/mL)
[19]; Mycobacterium avium
  MIC: 231 µM (≈ 62.5 µg/mL)
[20]
  MIC: 115 µM (≈ 31.3 µg/mL)
[21]
  MIC: 231 µM (≈ 62.5 µg/mL)
[22]; ATCC204305, 24h incubation
  MIC: > 500 µM
[22]; ATCC204305, 48h incubation
  MIC: > 500 µM

## O=C(Nc1ccc2c(c1)B(O)OC2)c1ccc2ccccc2n1 [Compound 19, N-(1-hydroxy-1,3-dihydrobenzo[c][1,2]oxaborol-6-yl)quinoline-2-carboxamide]
[1]; 24 h
  MIC: > 125 µM
[1]; 48 h
  MIC: > 125 µM
[2]; 24 h
  MIC: > 125 µM
[2]; 48 h
  MIC: > 125 µM
[3]; 24 h
  MIC: > 125 µM
[3]; 48 h
  MIC: > 125 µM
[4]; 24 h
  MIC: > 125 µM
[4]; 48 h
  MIC: > 125 µM
[5]; 24 h
  MIC: > 125 µM
[5]; 48 h
  MIC: > 125 µM
[6]; 24 h
  MIC: 125 µM (≈ 38 µg/mL)
[6]; 48 h
  MIC: 125 µM (≈ 38 µg/mL)
[7]; 24 h
  MIC: > 125 µM
[7]; 48 h
  MIC: > 125 µM
HepG2 cell line
  IC50: 467 µM
[8]; 24 h
  MIC: > 125 µM
[8]; 48 h
  MIC: > 125 µM
[9]; 72 h
  MIC: > 125 µM
[9]; 120 h
  MIC: > 125 µM
[10]
  MIC: 25.7 µM (≈ 7.81 µg/mL)
[11]; CCM8077, 24 h
  MIC: > 125 µM
[11]; CCM8077, 48 h
  MIC: > 125 µM
other
  melting point: 201 to 203.1 °C
[12]; 24 h
  MIC: > 125 µM
[12]; 48 h
  MIC: > 125 µM
[13]
  MIC: 206 µM (≈ 62.5 µg/mL)
[14]; 24 h
  MIC: > 125 µM
[14]; 48 h
  MIC: > 125 µM
[15]; 24 h
  MIC: > 125 µM
[15]; 48 h
  MIC: > 125 µM
[16]; CCM8363, 24 h
  MIC: > 125 µM
[16]; CCM8363, 48 h
  MIC: > 125 µM
[17]; 24 h
  MIC: > 125 µM
[17]; 48 h
  MIC: > 125 µM
[18]
  MIC: 82.2 µM (≈ 25 µg/mL)
[19]
  MIC: 25.68 µM (≈ 7.81 µg/mL)
[19]; Mycobacterium avium
  MIC: 25.6 µM (≈ 7.78 µg/mL)
[20]
  MIC: 206 µM (≈ 62.5 µg/mL)
[21]
  MIC: 25.7 µM (≈ 7.81 µg/mL)
[22]; ATCC204305, 24 h
  MIC: > 125 µM
[22]; ATCC204305, 48 h
  MIC: > 125 µM

## O=C(Nc1ccc2c(c1)B(O)OC2)c1cnccn1 [Compound 1, N-(1-hydroxy-1,3-dihydrobenzo[c][1,2]oxaborol-6-yl)pyrazine-2-carboxamide]
[1]; 24h incubation
  MIC: > 500 µM
[1]; 48h incubation
  MIC: > 500 µM
[2]; 24h incubation
  MIC: > 500 µM
[2]; 48h incubation
  MIC: > 500 µM
[3]; 24 h
  MIC: 500 µM (≈ 128 µg/mL)
[3]; 48 h
  MIC: 500 µM (≈ 128 µg/mL)
[4]; 24h incubation
  MIC: 500 µM (≈ 128 µg/mL)
[4]; 48h incubation
  MIC: 500 µM (≈ 128 µg/mL)
[5]; 24h incubation
  MIC: > 500 µM
[5]; 48h incubation
  MIC: > 500 µM
[6]; 24h incubation
  MIC: 250 µM (≈ 63.8 µg/mL)
[6]; 48h incubation
  MIC: 250 µM (≈ 63.8 µg/mL)
[7]; 24h incubation
  MIC: > 500 µM
[7]; 48h incubation
  MIC: > 500 µM
HepG2 cell line
  IC50: > 1000 µM
[8]; 24h incubation
  MIC: > 500 µM
[8]; 48h incubation
  MIC: > 500 µM
[9]; 72h incubation
  MIC: > 500 µM
[9]; 120h incubation
  MIC: > 500 µM
[10]
  MIC: 30.6 µM (≈ 7.81 µg/mL)
[11]; CCM8077, 24h incubation
  MIC: > 500 µM
[11]; CCM8077, 48h incubation
  MIC: > 500 µM
other
  melting point: 261.3 to 262.3 °C
[12]; 24h incubation
  MIC: > 500 µM
[12]; 48h incubation
  MIC: > 500 µM
[13]; Middlebrook 7H9, resazurin
  MIC: 30.6 µM (≈ 7.81 µg/mL)
[14]; 24h incubation
  MIC: > 500 µM
[14]; 48h incubation
  MIC: > 500 µM
[15]; 24h incubation
  MIC: > 500 µM
[15]; 48h incubation
  MIC: > 500 µM
[16]; CCM8363, 24h incubation
  MIC: > 500 µM
[16]; CCM8363, 48h incubation
  MIC: > 500 µM
[17]; 24h incubation
  MIC: > 500 µM
[17]; 48h incubation
  MIC: > 500 µM
[18]
  MIC: 49 µM (≈ 12.5 µg/mL)
[19]; Mycobacterium avium
  MIC: 123 µM (≈ 31.3 µg/mL)
[20]
  MIC: 123 µM (≈ 31.3 µg/mL)
[21]
  MIC: 15.3 µM (≈ 3.91 µg/mL)
[22]; ATCC204305, 24h incubation
  MIC: > 500 µM
[22]; ATCC204305, 48h incubation
  MIC: > 500 µM
